Data as given in US10844013B2, “Phenyl amino piperidine mTORC inhibitors and uses thereof” (Navitor Pharmaceuticals, Inc., priority 2016, dated 2020).
Counter-ions that a name gives are not always drawn.

Experiments:
[1] = system: pAKT (p-Akt 1/2/3 (Ser473)) in MCF-7 cells; assay: AlphaLISA Ultra pAKT assay; assay type: cell-based; conditions: Homo sapiens, MCF7, 2 hours compound incubation
Method: Example 156: AlphaLISA Ultra pAKT Assay
(§1) Assay Protocol: • 1. MCF-7 cells in Corning 3701 plate and incubate for 20-24 hour. 16,000-20,000 cells will be seeded in 36 μL medium per well. • 2. Change the culture medium with fresh medium and incubate for another 2 hours. • 3. Add 12 μL (4×) compounds into the cell plate by HAMILTON. Final DMSO concentration is 0.5%. Incubate for 2 hours. • 4. Aspirate 38 j L by HAMILTON, 10 μL rest per well. • 5. Add 10 μL 2× lysis buffer using HAMILTON; total volume in wells is 20 μL. Allow cells to shake for 30 min. Cover plate by plastic foil and store plate at −80° C. up to analysis. • 6. Thaw cell lysate at RT and transfer 10 ul lysate to assay plate (Optiplate-384). • 7. Add 5 ul acceptor beads into assay plate and incubation for 2 hours • 8. Add 5 ul donor beads and incubation for 2 hours • 9. Count the plate by EnSpire Multimode Plate Reader

[2] = system: pS6K1 (p-p70 S6 Kinase (Thr389)) in MCF-7 cells; assay: AlphaLISA Ultra pS6K1 assay; assay type: cell-based; conditions: Homo sapiens, MCF7, 2 h, 2 hours compound incubation
Method: Example 155: AlphaLISA Ultra pS6K1 assay
as §1, with “1. Seed” for “1.”, “20˜24” for “20-24”, “12,000˜16,000” for “16,000-20,000”, “μL” for “j L”

Compound	IC50 [1]	IC50 [2]
Cc1cc(C)c(C(=O)N2CCN(c3ccc(F)cn3)C(=O)C2)cc1NC1CCN(c2ccccc2C#N)CC1 [I-72, 2-[4-({5-[4-(5-Fluoropyridin-2-yl)-3-oxopiperazine-1-carbonyl]-2,4-dimethylphenyl}amino)piperidin-1-yl]benzonitrile]	> 10000 nM	3000 to 5000 nM
Cc1cccc(N2CCN(C(=O)c3cc(NC4CCN(c5ccccc5C#N)CC4)c(C)cc3C)C[C@@H]2CO)n1 [I-101, (R)-2-(4-(5-(3-(Hydroxymethyl)-4-(6-methylpyridin-2-yl)piperazine-1-carbonyl)-2,4-dimethylphenylamino)piperidin-1-yl)benzonitrile]	> 10000 nM	1000 to 3000 nM
Cc1cc(C)c(C(=O)N2CCN(c3ccccc3)[C@H](CO)C2)c(C)c1NC1CCN(c2cccnn2)CC1 [I-158, [(2S)-1-phenyl-4-(2,4,6-trimethyl-3-{[1-(pyridazin-3-yl)piperidin-4-yl]amino}benzoyl)piperazin-2-yl]MeOH]	> 10000 nM	10 to 1000 nM
Cc1cc(C)c(C(=O)N2CCN(c3cccnn3)[C@H](CO)C2)c(C)c1NC1CCN(c2cccnn2)CC1 [I-160, [(2S)-1-(pyridazin-3-yl)-4-(2,4,6-trimethyl-3-{[1-(pyridazin-3-yl)piperidin-4-yl]amino}benzoyl)piperazin-2-yl]MeOH]	> 10000 nM	1000 to 3000 nM
Cc1cc(C)c(C(=O)N2CCN(c3ccccc3)[C@H](CO)C2)cc1NC1CCN(c2ccccc2C#N)CC1 (single isomer, unassigned) [I-40, 2-[4-({5-[3S or R-(hydroxymethyl)-4-phenylpiperazine-1-carbonyl]-2,4-dimethylphenyl}amino)piperidin-1-yl]benzonitrile]	> 10000 nM	10 to 1000 nM
Cc1cc(C)c(C(=O)N2CCN(c3ccccc3)[C@H](C)C2)cc1NC1CCN(c2ccccc2C#N)CC1 [I-47, (R)-2-(4-(2,4-Dimethyl-5-(3-methyl-4-phenylpiperazine-1-carbonyl)phenylamino)piperidin-1-yl)benzonitrile]	> 10000 nM	1000 to 3000 nM
Cc1cc(C)c(C(=O)N2CCN(c3ccccc3)CC2)cc1NC1CCN(c2ccccc2C#N)CC1 [I-57]	> 10000 nM	1000 to 3000 nM
CNC(=O)C1CN(C(=O)c2cc(NC3CCN(c4ccccc4C#N)CC3)c(C)cc2C)CCN1c1ccccc1 (stereo not drawn) [I-32, 4-(5-{[1-(2-cyanophenyl)piperidin-4-yl]amino}-2,4-dimethylbenzoyl)-N-methyl-1-phenylpiperazine-2-carboxamide]	> 10000 nM	1000 to 3000 nM
Cc1ccc(C(=O)N2CCN(c3ccccc3S(N)(=O)=O)CC2)cc1NC1CCN(c2ccccc2C#N)CC1 [I-11]	> 10000 nM	3000 to 5000 nM
Cc1cc(C)c(C(=O)N2CCN(c3c(F)cc(F)cc3S(N)(=O)=O)CC2)cc1NC1CCN(c2ccccc2C#N)CC1 [I-174, 2-(4-(5-((1-(2-cyanophenyl)piperidin-4-yl)amino)-2,4-dimethylbenzoyl)piperazin-1-yl)-3,5-difluorobenzenesulfonamide]	> 10000 nM	10 to 1000 nM
Cc1cc(C)c(C(=O)N2CCN(c3ccccc3S(N)(=O)=O)CC2)cc1N[C@@H]1CCN(c2ccccc2C#N)C[C@H]1C [I-170, 2-(4-(5-(((3R,4R)-1-(2-cyanophenyl)-3-methylpiperidin-4-yl)amino)-2,4-dimethylbenzoyl)piperazin-1-yl)benzenesulfonamide]	> 10000 nM	10 to 1000 nM
Cc1cc(C)c(C(=O)N2CCN(c3cccc(F)c3S(N)(=O)=O)CC2)nc1NC1CCN(c2ccccc2C#N)CC1 [I-16, 2-(4-(6-(1-(2-Cyanophenyl)piperidin-4-ylamino)-3,5-dimethylpicolinoyl)piperazin-1-yl)-6-fluorobenzenesulfonamide]	> 10000 nM	10 to 1000 nM
Cc1cc(C)c(C(=O)N2CCN(c3cc(F)c(F)cc3S(N)(=O)=O)CC2)cc1NC1CCN(c2ccccc2C#N)CC1 [I-104, 2-(4-(5-(1-(2-Cyanophenyl)piperidin-4-ylamino)-2,4-dimethylbenzoyl)piperazin-1-yl)-4,5-difluorobenzenesulfonamide]	> 10000 nM	10 to 1000 nM
Cc1cc(C)c(C(=O)N2CCN(c3nnco3)[C@H](CO)C2)cc1NC1CCN(c2ccccc2C#N)CC1 [I-177, (S)-2-(4-((5-(3-(hydroxymethyl)-4-(1,3,4-oxadiazol-2-yl)piperazine-1-carbonyl)-2,4-dimethylphenyl)amino)piperidin-1-yl)benzonitrile]	> 10000 nM	1000 to 3000 nM
Cc1cc(C)c(C(=O)N2CCN(c3ccccc3S(N)(=O)=O)CC2)cc1NC1CCN(c2ccccc2C)CC1 [I-108, 2-(4-(2,4-Dimethyl-5-(1-o-tolylpiperidin-4-ylamino)benzoyl)piperazin-1-yl)benzenesulfonamide]	> 10000 nM	1000 to 3000 nM
Cc1cc(C)c(C(=O)N2CCN(c3ccc(F)cc3S(N)(=O)=O)CC2)nc1NC1CCN(c2ccccc2C#N)CC1 [I-103, 2-(4-(6-(1-(2-cyanophenyl)piperidin-4-ylamino)-3,5-dimethylpicolinoyl)piperazin-1-yl)-5-fluorobenzenesulfonamide]	> 10000 nM	1000 to 3000 nM
Cc1cc(C)c(C(=O)N2CCN(c3ccccn3)CC2)cc1NC1CCN(c2ccccc2C#N)CC1 [I-55]	> 10000 nM	1000 to 3000 nM
Cc1cc(C)c(C(=O)N2CCN(c3ccccc3[S@](C)(=N)=O)CC2)nc1NC1CCN(c2ccccc2C#N)CC1 [I-110, (R)-2-(4-(3,5-Dimethyl-6-(4-(2-(S-methylsulfonimidoyl)phenyl)piperazine-1-carbonyl)pyridin-2-ylamino)piperidin-1-yl)benzonitrile]	> 10000 nM	10 to 1000 nM
Cc1cc(C)c(C(=O)N2CCN(c3ccccn3)C(C)(C)C2)cc1NC1CCN(c2ccccc2C#N)CC1 [I-118]	> 10000 nM	1000 to 3000 nM
Cc1cc(C)c(C(=O)N2CCN(c3cccc(F)c3[S@](C)(=N)=O)CC2)cc1NC1CCN(c2ccccc2C#N)CC1 (single isomer, unassigned) [I-89]	> 10000 nM	10 to 1000 nM
Cc1cc(C)c(C(=O)N2CCN(c3ccccc3)C(C)(C)C2)cc1NC1CCN(c2ccccc2C#N)CC1 [I-119, 2-(4-(5-(3,3-Dimethyl-4-phenylpiperazine-1-carbonyl)-2,4-dimethylphenylamino)piperidin-1-yl)benzonitrile]	> 10000 nM	> 10000 nM
Cc1cc(C)c(C(=O)N2CCN(C(=O)OC(C)(C)C)[C@H](CO)C2)cc1NC1CCN(c2ccccc2C#N)CC1 [I-9, (S)-tert-butyl 4-(5-(1-(2-cyanophenyl)piperidin-4-ylamino)-2,4-dimethylbenzoyl)-2-(hydroxymethyl)piperazine-1-carboxylate]	> 10000 nM	1000 to 3000 nM
Cc1cc(C)c(C(=O)N2CCN(c3ccccc3S(N)(=O)=O)CC2)nc1NC1CCN(c2ccccc2C#N)CC1 [I-66, 2-(4-(6-(1-(2-Cyanophenyl)piperidin-4-ylamino)-3,5-dimethylpicolinoyl)piperazin-1-yl)benzenesulfonamide]	> 10000 nM	10 to 1000 nM
Cc1cc(C)c(C(=O)N2CCN(c3ccc(F)cc3)C(C(N)=O)C2)c(C)c1NC1CCN(c2ccc(F)cc2C#N)CC1 (stereo not drawn) [I-144, 4-(3-{[1-(2-cyano-4-fluorophenyl)piperidin-4-yl]amino}-2,4,6-trimethyl-benzoyl)-1-(4-fluorophenyl) piperazine-2-carboxamide]	> 10000 nM	10 to 1000 nM
Cc1cc(C)c(C(=O)N2CCN(c3ccccc3)C(CN)C2)c(C)c1NC1CCN(c2ccccc2C#N)CC1 (stereo not drawn) [I-135, 2-[4-({3-[3-(Aminomethyl)-4-phenylpiperazine-1-carbonyl]-2,4,6-trimethylphenyl}amino)piperidin-1-yl]benzonitrile; bis(formic acid) salt]	> 10000 nM	10 to 1000 nM
COc1cc(C)c(C(=O)N2CCN(c3ccccc3S(N)(=O)=O)CC2)cc1NC1CCN(c2ccccc2C#N)CC1 [I-127, 2-(4-(5-(1-(2-Cyanophenyl)piperidin-4-ylamino)-4-methoxy-2-methylbenzoyl)piperazin-1-yl)benzenesulfonamide]	> 10000 nM	3000 to 5000 nM
Cc1cc(C)c(C(=O)N2CCN(c3ccc(F)cn3)[C@@H](CO)C2)cc1NC1CCN(c2ccccc2C#N)CC1 [I-116, (R)-2-(4-(5-(4-(5-Fluoropyridin-2-yl)-3-(hydroxymethyl)piperazine-1-carbonyl)-2,4-dimethylphenylamino)piperidin-1-yl)benzonitrile]	> 10000 nM	1000 to 3000 nM
